How the values were obtained:
[1] = biological target: T1, Polyunsaturated fatty acid 5-lipoxygenase (Homo sapiens, UniProt P09917); assay: Inhibitory concentration against human 5-lipoxygenase
T1 sequence (P09917 whole entry): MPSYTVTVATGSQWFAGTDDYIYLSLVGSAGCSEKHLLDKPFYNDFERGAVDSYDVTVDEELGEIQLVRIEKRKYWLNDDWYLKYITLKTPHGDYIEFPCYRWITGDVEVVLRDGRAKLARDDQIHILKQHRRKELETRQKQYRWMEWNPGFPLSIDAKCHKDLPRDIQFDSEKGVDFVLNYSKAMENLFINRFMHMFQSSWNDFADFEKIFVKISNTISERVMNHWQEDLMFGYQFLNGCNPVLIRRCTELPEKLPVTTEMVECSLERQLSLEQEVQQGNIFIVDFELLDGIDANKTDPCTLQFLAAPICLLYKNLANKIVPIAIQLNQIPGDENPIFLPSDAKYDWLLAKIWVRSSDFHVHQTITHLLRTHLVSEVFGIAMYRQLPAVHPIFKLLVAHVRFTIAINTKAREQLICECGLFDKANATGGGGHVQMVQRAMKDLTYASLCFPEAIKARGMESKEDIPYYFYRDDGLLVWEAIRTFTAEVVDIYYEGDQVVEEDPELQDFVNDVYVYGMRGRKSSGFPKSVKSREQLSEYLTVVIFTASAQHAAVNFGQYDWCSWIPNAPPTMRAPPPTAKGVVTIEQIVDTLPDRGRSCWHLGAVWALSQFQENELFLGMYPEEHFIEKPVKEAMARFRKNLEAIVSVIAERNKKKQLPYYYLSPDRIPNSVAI

Histamine H1 receptor = Histamine H1 receptor (Homo sapiens, UniProt P35367); assay: Binding affinity for human Histamine H1 receptor in CHO K1 cells; format: cell-based
Chain of Histamine H1 receptor (P35367 whole entry): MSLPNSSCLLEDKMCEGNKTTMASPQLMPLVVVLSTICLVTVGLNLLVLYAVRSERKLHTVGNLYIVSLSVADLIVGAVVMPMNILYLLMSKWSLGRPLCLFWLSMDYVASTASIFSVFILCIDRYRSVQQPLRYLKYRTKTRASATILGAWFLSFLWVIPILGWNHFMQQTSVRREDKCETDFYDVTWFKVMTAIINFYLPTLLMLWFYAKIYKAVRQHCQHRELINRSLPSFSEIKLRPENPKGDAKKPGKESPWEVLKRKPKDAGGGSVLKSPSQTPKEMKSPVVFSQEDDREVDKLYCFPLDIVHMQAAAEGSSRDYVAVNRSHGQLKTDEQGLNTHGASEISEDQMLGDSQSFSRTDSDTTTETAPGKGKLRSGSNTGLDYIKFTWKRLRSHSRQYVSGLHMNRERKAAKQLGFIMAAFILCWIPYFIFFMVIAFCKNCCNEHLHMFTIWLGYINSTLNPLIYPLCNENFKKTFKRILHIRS

[2] = biological target: T1, Polyunsaturated fatty acid 5-lipoxygenase; assay: Inhibitory concentration against 5-lipoxygenase in human whole blood; format: functional, tissue-based

Structure (SMILES) | IC50 [1] | Ki (Histamine H1 receptor) | IC50 [2]
NC(=O)N(O)CCC#Cc1ccc(OCCCCN2CCN(C(c3ccc(F)cc3)c3ccc(F)cc3)CC2)cc1 | 193 nM |  | 
CCOC(=O)N(O)CCC#Cc1ccc(OCCCCN2CCN(C(c3ccc(F)cc3)c3ccc(F)cc3)CC2)cc1 | 365 nM | 5.89 nM | 72 nM
CC(C)COC(=O)N(O)CCC#Cc1ccc(OCCCCN2CCN(C(c3ccc(F)cc3)c3ccc(F)cc3)CC2)cc1 | 420 nM | 7.59 nM | 176 nM
CC(C)OC(=O)N(O)CCC#Cc1ccc(OCCCCN2CCN(C(c3ccc(F)cc3)c3ccc(F)cc3)CC2)cc1 | 335 nM | 9.55 nM | 102 nM
O=C(OCc1ccccc1)N(O)CCC#Cc1ccc(OCCCCN2CCN(C(c3ccc(F)cc3)c3ccc(F)cc3)CC2)cc1 | 350 nM | 17.8 nM | 150 nM
COC(=O)N(O)CCC#Cc1ccc(OCCCCN2CCN(C(c3ccc(F)cc3)c3ccc(F)cc3)CC2)cc1 | 170 nM | 5.01 nM | 90 nM
